In patent publication US20250320206A1, “STAT6 DEGRADERS” (Gilead Sciences, Inc., priority 2024, published 2025):

Experiments:
STAT6 = target: T1, STAT6 (Homo sapiens, UniProt P42226); experiment: Stat6 Degrader Assay (HiBiT based, HeLa LgBiT clone 4.14); type: cell-based; details: HeLa LgBiT clone 4.14 HiBiT-STAT6, 4-24 h incubation; values given for compounds with >80% Emax; geometric mean; read-out: STAT6 degradation DC50
T1 construct: These cells express endogenous STAT6; host or cells: HeLa LgBiT clone 4.14
T1 sequence (P42226 1-847): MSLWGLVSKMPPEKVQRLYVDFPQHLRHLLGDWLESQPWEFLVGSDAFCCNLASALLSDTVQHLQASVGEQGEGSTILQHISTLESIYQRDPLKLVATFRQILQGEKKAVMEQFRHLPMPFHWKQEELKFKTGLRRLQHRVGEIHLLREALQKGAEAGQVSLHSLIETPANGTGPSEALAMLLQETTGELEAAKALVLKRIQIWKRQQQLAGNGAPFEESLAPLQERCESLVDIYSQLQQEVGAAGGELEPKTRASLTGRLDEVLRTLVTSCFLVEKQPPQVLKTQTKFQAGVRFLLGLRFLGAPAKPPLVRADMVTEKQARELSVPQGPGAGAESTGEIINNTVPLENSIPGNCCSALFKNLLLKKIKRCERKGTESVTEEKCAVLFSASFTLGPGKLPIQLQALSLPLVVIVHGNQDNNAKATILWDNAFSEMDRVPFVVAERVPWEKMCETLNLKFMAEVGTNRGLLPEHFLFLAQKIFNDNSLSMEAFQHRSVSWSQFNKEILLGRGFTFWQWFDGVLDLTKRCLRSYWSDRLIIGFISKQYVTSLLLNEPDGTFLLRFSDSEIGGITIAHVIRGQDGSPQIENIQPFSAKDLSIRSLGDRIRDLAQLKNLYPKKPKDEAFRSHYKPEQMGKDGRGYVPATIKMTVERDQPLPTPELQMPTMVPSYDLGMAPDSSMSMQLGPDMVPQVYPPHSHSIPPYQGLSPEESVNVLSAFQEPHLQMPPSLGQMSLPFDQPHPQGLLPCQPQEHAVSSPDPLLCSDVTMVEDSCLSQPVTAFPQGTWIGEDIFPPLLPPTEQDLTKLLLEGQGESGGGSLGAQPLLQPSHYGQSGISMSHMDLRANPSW
Summary of the method: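 HeLa LgBiT clone 4.14 cells with CRISPR HiBiT-tagged endogenous STAT6, 5000 cells/well, compound dosed then incubated 4-24 h at 37° C, 5% CO2. Nano-Glo substrate added, 0.5 h, luminescence read as non-degraded STAT6. Terfenadine 50 μM (cell kill) defines 100% degradation.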

[1] = test system: Eotaxin-3 release in human whole blood stimulated with IL-4; experiment: Human Whole Blood Eotaxin-3 Assay (IL-4 stimulated eotaxin-3 release); type: cell-based; details: IL-4 stimulation, 48 h, values given for compounds with >80% Emax, geometric mean
Summary of the method: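 Lithium-heparin human whole blood preincubated 2 h at 37° C with 4-fold serially diluted compounds (0.5% DMSO), then stimulated with recombinant human IL-4 ([…]) for 48 h. Eotaxin-3 (CCL26) in supernatant quantified by MSD immunoassay.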

DC50 (STAT6) [pM] | EC50 [1] [pM] | Compound
700 | 400 | CNc1ccn(-c2ccnc3c2cc([C@H](C)N2CC=C(c4c(C)cc(C(=O)N5CCC(CN6CCN(c7cc8c(cc7F)n(C7CCC(=O)NC7=O)c(=O)n8C)CC6)CC5)cc4F)CC2)n3C)c(=O)c1 (stereo partly drawn) [Example 3u310, 3-(6-fluoro-5-(4-((1-(3-fluoro-5-methyl-4-(1-((S)-1-(1-methyl-4-(4-(methylamino)-2-oxopyridin-1 (2H)-yl)-1H-pyrrolo[2,3-b]pyridin-2-yl)ethyl)-1,2,3,6-tetrahydropyridin-4-yl)benzoyl)-piperidin-4-yl)methyl)piperazin-1-yl)-3-methyl-2-oxo-2,3-dihydro-1H-benzo[d]imidazol-1-yl)-piperidine-2,6-dione]
500 | 400 | C[C@H]1CN(Cc2ccc3c(c2)n(C)c(=O)n3C2CCC(=O)NC2=O)CCN1CC1CCN(C(=O)c2cc(F)c(C3CCN(Cc4cc5c(-n6ccc7c(c6=O)CCN7)ccnc5n4C)CC3)c(F)c2)CC1 (stereo partly drawn) [Example 3u311, 3-(5-(((S)-4-((1-(3,5-difluoro-4-(1-((1-methyl-4-(4-oxo-1,2,3,4-tetrahydro-5H-pyrrolo[3,2-c]pyridin-5-yl)-1H-pyrrolo[2,3-b]pyridin-2-yl)methyl)piperidin-4-yl)benzoyl)piperidin-4-yl)methyl)-3-methylpiperazin-1-yl)methyl)-3-methyl-2-oxo-2,3-dihydro-1H-benzo[d]imidazol-1-yl)piperidine-2,6-dione]
